10 molecules from patent US8524705B2, “2-oxo-2-(2-phenyl-5,6,7,8-tetrahydro-indolizin-3-yl)-acetamide derivatives and related compounds as antifungal agents” (F2G Limited British Body Corporate, priority 2007, dated 2013) can be followed below.

Format in all cases: cell-based
Settings in all cases: banded into grades

One assay has as its system Aspergillus niger. The assay is described as follows: Measurement of Minimum Inhibitory Concentrations (MICs), A. niger. Here is the method:
(§1) Between 1 and 5 mgs of compound were accurately weighed out into a sterile Eppendorf tube. The compound was dissolved in DMSO to give a solution containing 5 mg/mL. Tubes were stored at −20° C. until required. On the day of testing thawed solutions were vortex mixed to ensure homogeneity. 30 μL of solution was removed and added to 570 μL of sterile water in a separate sterile Eppendorf. The thoroughly mixed solution was used to prepare a series of doubling dilutions in water, in a deep well plate. […] replicate plates were prepared using a Minitrak by aspirating […] from each well into eleven clear polystyrene 96 well plates. Spores of Aspergillus spp. (Aspergillus fumigatus [two strains], Aspergillus terreus [two strains], Aspergillus niger and Aspergillus flavus) were harvested from cultures grown on Sabarauds agar for 5 days, and resuspended in PBS/Tween 80 to approx 1×10^7 cfu/mL. Each organism suspension was diluted in YAG medium (1% glucose, 1% ammonium chloride and 0.5% yeast extract) to 0.5-2×10^4 cfu/mL. 80 μL of an organism suspension was added to each well of the plate containing drug dilutions. This produced MIC plates with a drug range 50-0.05 mg/L and organism inocula of 1−2×10^4 cfu/mL for Aspergillus spp. All plates were incubated for 24 hrs at 35° C. Growth was assessed by monitoring the optical density at 485 nm for each well. The MIC of a compound is the lowest drug concentration that inhibits growth of an organism by >70% compared with a drug free control. MICs are recorded as mg/L. In cases where the MIC of an organism is >=0.05 mg/L the MIC is repeated using a concentration range of 0.5-0.0005 mg/L. Other growth media can be used for susceptibility testing, and the activity of the described compounds was also assessed in RPMI medium containing 2% glucose, and 0.135M MOPS buffer. MIC tests in YAG medium have more clear-cut endpoints and have slightly lower MICs than those performed in RPMI medium. The following organisms were tested: Aspergillus flavus, Aspergillus fumigatus AF293 and AF210, Aspergillus niger and Aspergillus terreus AT4 and AT49.

In another assay the test system is Aspergillus terreus AT4. The assay is described as follows: Measurement of Minimum Inhibitory Concentrations (MICs), A. terreus. Here is the method: as §1
The next assay has as its system Aspergillus flavus. The assay is described as follows: Measurement of Minimum Inhibitory Concentrations (MICs), A. flavus. As for the experimental part:
as §1

Assay [1] deals with Aspergillus fumigatus AF293. The assay is described as follows: Measurement of Minimum Inhibitory Concentrations (MICs), A. fumigatus. Here is the method: as §1
The test system of another assay is Aspergillus terreus AT49. The assay is described as follows: Measurement of Minimum Inhibitory Concentrations (MICs), A. terreus 49. As for the experimental part:
as §1

The subject of assay [2] is Aspergillus fumigatus AF210. The assay is described as follows: Measurement of Minimum Inhibitory Concentrations (MICs), A. fumigatus 210. Here is the method:
as §1

Where [3] appears, read: RPMI medium containing 2% glucose, 0.135M MOPS buffer.
The mark [4] stands for this setting: YAG medium, 24 hrs at 35° C., >70% growth inhibition.

Broadly, the MIC is the least concentration at which growth counts as inhibited. High values mean a need for much substance, low ones inhibition by little substance.

≈ marks a conversion by molar mass, not a printed value. A value given as a limit tells only on which side of the number the result lay.

As to `COc1cc(C)cc(N2CCN(c3ccc(NC(=O)C(=O)c4c(-c5ccccc5)cc5n4CCCC5)cc3)CC2)n1` [Example 13, N-{4-[4-(6-Methoxy-4-methyl-pyridin-2-yl)-piperazin-1-yl]-phenyl}-2-oxo-2-(2-phenyl-5,6,7,8-tetrahydro-indolizin-3-yl)-acetamide], the MIC in the assay with Aspergillus niger (setting [3]), against Aspergillus niger (setting [4]), in the assay on Aspergillus terreus AT4 (setting [3]), against Aspergillus terreus AT4 (setting [4]), in the assay with Aspergillus flavus (setting [3]) and against Aspergillus flavus (setting [4]) was less than 1 µg/mL each time. The MIC (in assay [1] (setting [3]); in assay [1] (setting [4]); against Aspergillus terreus AT49 (setting [3]); against Aspergillus terreus AT49 (setting [4]); in assay [2] (setting [3]); in assay [2] (setting [4])) was less than 1 µg/mL in each case.

Turning to `O=C(NC1CCN(c2ccccc2)CC1)C(=O)c1c(-c2ccccc2)cc2n1CCCC2` [Example 12, 2-Oxo-N-(1-phenyl-piperidin-4-yl)-2-(2-phenyl-5,6,7,8-tetrahydro-indolizin-3-yl)-acetamide], the MIC is 1 to 10 µg/mL (≈ 2.34 to 23.4 µM) in the assay on Aspergillus niger (setting [3]); less than 1 µg/mL with Aspergillus niger (setting [4]); 1 to 10 µg/mL (≈ 2.34 to 23.4 µM) against Aspergillus terreus AT4 (setting [3]); less than 1 µg/mL against Aspergillus terreus AT4 (setting [4]); greater than 10 µg/mL against Aspergillus flavus (setting [3]); greater than 10 µg/mL in the assay on Aspergillus flavus (setting [4]). The MIC is 1 to 10 µg/mL (≈ 2.34 to 23.4 µM) in assay [1] (setting [3]); less than 1 µg/mL in assay [1] (setting [4]); 1 to 10 µg/mL (≈ 2.34 to 23.4 µM) in the assay on Aspergillus terreus AT49 (setting [3]); less than 1 µg/mL with Aspergillus terreus AT49 (setting [4]); 1 to 10 µg/mL (≈ 2.34 to 23.4 µM) in assay [2] (setting [3]); less than 1 µg/mL in assay [2] (setting [4]).

`Cc1cc(C)nc(N2CCN(c3ccc(NC(=O)C(=O)c4c(-c5ccccc5)cc5n4CCCC5)cc3COCCCN3CCN(C)CC3)CC2)c1` [Example 25, N-{4-[4-(4,6-Dimethyl-pyridin-2-yl)-piperazin-1-yl]-3-[3-(4-methyl-piperazin-1-yl)-propoxymethyl]-phenyl}-2-oxo-2-(2-phenyl-5,6,7,8-tetrahydro-indolizin-3-yl)-acetamide]: the MIC with Aspergillus niger (setting [3]), in the assay on Aspergillus niger (setting [4]), with Aspergillus terreus AT4 (setting [3]), in the assay on Aspergillus terreus AT4 (setting [4]), in the assay on Aspergillus flavus (setting [3]) and against Aspergillus flavus (setting [4]) was greater than 10 µg/mL throughout. The MIC (in assay [1] (setting [3]); in assay [1] (setting [4]); in the assay with Aspergillus terreus AT49 (setting [3]); with Aspergillus terreus AT49 (setting [4]); in assay [2] (setting [3]); in assay [2] (setting [4])) was greater than 10 µg/mL in each case.

For the molecule `Cc1cc(C)nc(N2CCN(c3ccc(NC(=O)C(=O)c4c(-c5ccccc5)cc5n4CCCC5)cc3COCCCN3CCOCC3)CC2)c1` [Example 26, N-[4-[4-(4,6-Dimethyl-pyridin-2-yl)-piperazin-1-yl]-3-(3-morpholin-4-yl-propoxymethyl)-phenyl]-2-oxo-2-(2-phenyl-5,6,7,8-tetrahydro-indolizin-3-yl)-acetamide], the MIC in the assay with Aspergillus niger (setting [3]) was greater than 10 µg/mL; against Aspergillus niger (setting [4]), greater than 10 µg/mL; in the assay on Aspergillus terreus AT4 (setting [3]) it was greater than 10 µg/mL; in the assay on Aspergillus terreus AT4 (setting [4]), greater than 10 µg/mL; with Aspergillus flavus (setting [3]), greater than 10 µg/mL; against Aspergillus flavus (setting [4]), 1 to 10 µg/mL (≈ 1.45 to 14.5 µM). The MIC (in assay [1] (setting [3]); in assay [1] (setting [4]); in the assay with Aspergillus terreus AT49 (setting [3]); in the assay on Aspergillus terreus AT49 (setting [4]); in assay [2] (setting [3]); in assay [2] (setting [4])) was greater than 10 µg/mL in each case.

Consider `Cc1cc(C)nc(N2CCCN(c3ccc(NC(=O)C(=O)c4c(-c5ccccc5)cc5n4CCCC5)cc3)CC2)c1` [Example 5, N-{4-[4-(4,6-dimethyl-pyridin-2-yl)-[1,4]diazepan-1-yl]-phenyl}-2-oxo-2-(2-phenyl-5,6,7,8-tetrahydro-indolizin-3-yl)-acetamide], for which the MIC in the assay with Aspergillus niger (setting [3]), in the assay on Aspergillus niger (setting [4]), against Aspergillus terreus AT4 (setting [3]), with Aspergillus terreus AT4 (setting [4]), in the assay on Aspergillus flavus (setting [3]) and in the assay with Aspergillus flavus (setting [4]) was less than 1 µg/mL throughout. The minimum inhibitory concentration (MIC) (in assay [1] (setting [3]); in assay [1] (setting [4]); against Aspergillus terreus AT49 (setting [3]); with Aspergillus terreus AT49 (setting [4]); in assay [2] (setting [3]); in assay [2] (setting [4])) was less than 1 µg/mL throughout.

For the molecule `COCc1cc(NC(=O)C(=O)c2c(-c3ccccc3)cc3n2CCCC3)ccc1N1CCN(c2cc(C)cc(C)n2)CC1` [Example 23, N-{4-[4-(4,6-Dimethyl-pyridin-2-yl)-piperazin-1-yl]-3-methoxymethyl-phenyl}-2-oxo-2-(2-phenyl-5,6,7,8-tetrahydro-indolizin-3-yl)-acetamide], the MIC with Aspergillus niger (setting [3]), with Aspergillus niger (setting [4]), with Aspergillus terreus AT4 (setting [3]), against Aspergillus terreus AT4 (setting [4]), in the assay on Aspergillus flavus (setting [3]) and with Aspergillus flavus (setting [4]) was less than 1 µg/mL throughout. In addition, the MIC (in assay [1] (setting [3]); in assay [1] (setting [4]); in the assay on Aspergillus terreus AT49 (setting [3]); in the assay on Aspergillus terreus AT49 (setting [4]); in assay [2] (setting [3]); in assay [2] (setting [4])) was less than 1 µg/mL in each case.

With `Cc1cc(C)nc(N(C)CCCN(C)c2ccc(NC(=O)C(=O)c3c(-c4ccccc4)cc4n3CCCC4)cc2)c1` [Example 19, N-[4-({3-[(4,6-Dimethyl-pyridin-2-yl)-methyl-amino]-propyl}-methyl-amino)-phenyl]-2-oxo-2-(2-phenyl-5,6,7,8-tetrahydro-indolizin-3-yl)-acetamide], the MIC against Aspergillus niger (setting [3]), against Aspergillus niger (setting [4]), against Aspergillus terreus AT4 (setting [3]), in the assay on Aspergillus terreus AT4 (setting [4]), against Aspergillus flavus (setting [3]) and against Aspergillus flavus (setting [4]) was less than 1 µg/mL each time. In addition, the MIC (in assay [1] (setting [3]); in assay [1] (setting [4]); against Aspergillus terreus AT49 (setting [3]); against Aspergillus terreus AT49 (setting [4]); in assay [2] (setting [3]); in assay [2] (setting [4])) was less than 1 µg/mL throughout.

With `COCc1cc(N2CCN(c3cc(C)cc(C)n3)CC2)ccc1NC(=O)C(=O)c1c(-c2ccccc2)cc2n1CCCC2` [Example 24, N-{4-[4-(4,6-Dimethyl-pyridin-2-yl)-piperazin-1-yl]-2-methoxymethyl-phenyl}-2-oxo-2-(2-phenyl-5,6,7,8-tetrahydro-indolizin-3-yl)-acetamide], the MIC in the assay on Aspergillus niger (setting [3]) is 1 to 10 µg/mL (≈ 1.73 to 17.3 µM); against Aspergillus niger (setting [4]) it was less than 1 µg/mL; against Aspergillus terreus AT4 (setting [3]), less than 1 µg/mL; in the assay on Aspergillus terreus AT4 (setting [4]) it was less than 1 µg/mL; in the assay with Aspergillus flavus (setting [3]) it was 1 to 10 µg/mL (≈ 1.73 to 17.3 µM); in the assay on Aspergillus flavus (setting [4]), less than 1 µg/mL. The MIC in assay [1] (setting [3]) is 1 to 10 µg/mL (≈ 1.73 to 17.3 µM); in assay [1] (setting [4]), less than 1 µg/mL; with Aspergillus terreus AT49 (setting [3]), less than 1 µg/mL; against Aspergillus terreus AT49 (setting [4]) it was less than 1 µg/mL; in assay [2] (setting [3]) it was 1 to 10 µg/mL (≈ 1.73 to 17.3 µM); in assay [2] (setting [4]) it was less than 1 µg/mL.

Regarding `CCc1ccnc(N2CCN(c3ccc(NC(=O)C(=O)c4c(-c5ccccc5)cc5n4CCCC5)cc3)CC2)c1` [Example 17, N-{4-[4-(4-Ethyl-pyridin-2-yl)-piperazin-1-yl]-phenyl}-2-oxo-2-(2-phenyl-5,6,7,8-tetrahydro-indolizin-3-yl)-acetamide], the MIC in the assay with Aspergillus niger (setting [3]), in the assay with Aspergillus niger (setting [4]), in the assay with Aspergillus terreus AT4 (setting [3]), in the assay on Aspergillus terreus AT4 (setting [4]), against Aspergillus flavus (setting [3]) and in the assay with Aspergillus flavus (setting [4]) was less than 1 µg/mL each time. For the same molecule, the MIC (in assay [1] (setting [3]); in assay [1] (setting [4]); with Aspergillus terreus AT49 (setting [3]); in the assay with Aspergillus terreus AT49 (setting [4]); in assay [2] (setting [3]); in assay [2] (setting [4])) was less than 1 µg/mL each time.

Consider `Cc1cc(C)nc(N2CCN(c3ccc(NC(=O)C(=O)c4c(C5CCOCC5)cc5n4CCCC5)cc3)CC2)c1` [Example 10, N-{4-[4-(4,6-Dimethyl-pyridin-2-yl)-piperazin-1-yl]-phenyl}-2-oxo-2-[2-(tetrahydro-pyran-4-yl)-5,6,7,8-tetrahydro-indolizin-3-yl]-acetamide], for which the MIC in the assay with Aspergillus niger (setting [3]), with Aspergillus niger (setting [4]), against Aspergillus terreus AT4 (setting [3]), in the assay on Aspergillus terreus AT4 (setting [4]), with Aspergillus flavus (setting [3]) and with Aspergillus flavus (setting [4]) was less than 1 µg/mL throughout. The MIC (in assay [1] (setting [3]); in assay [1] (setting [4]); against Aspergillus terreus AT49 (setting [3]); in the assay with Aspergillus terreus AT49 (setting [4]); in assay [2] (setting [3]); in assay [2] (setting [4])) was less than 1 µg/mL each time.
